# Values quoted from earlier work, collected in US6719977B1, “Methods to potentiate cancer therapies” (The General Hospital Corporation, priority 1998, dated 2004).
# Assays:
# [1] = collagenase treatment
# [2] = infusion of collagenase
# [3] = infusion of relaxin; fluid-filled subcutaneous balloon
# [4] = animal models
# [5] = animal models; remark: listed apart in the source
# [6] = animal models; remark: listed apart in the source
# [7] = test system: fibroblast; settings: a number of experimental settings
substance,measurement,setting,value
collagenase,hydraulic conductance,[1],increases hydraulic conductance
same,penetration of small and large molecules into a tumor,[2],dramatically facilitates penetration
relaxin,resistance to balloon expansion (pressure-volume relationship),[3],decreased the resistance to balloon expansion
same,formation of fibrotic capsules surrounding impenetrable foreign bodies,[4],prevent
same,parenchymal fibrosis accompanying oxidative pulmonary damage induced by bleomycin,[5],prevent
same,accumulation of collagen within implanted sponges,[6],prevent
γ-interferon [a pleiotypic cytokine produced by helper T cells],fibroblast proliferation and associated matrix deposition,[7],inhibit fibroblast proliferation and associated matrix deposition
